How the values were obtained:
B-cell compartments = conditions: clinical use; cited from earlier work
Text: These autoreactive MBCs likely exert pathogenic effector functions through the co-stimulation of T cells, the production of pro-inflammatory cytokines, and the recruitment of neutrophils to sites of the local inflammation.[1] The involvement of these cells in the inflammatory disease process is addi ...

[1] = system: patient-derived ACPA and immortalized ACPA-expressing B cells; conditions: cited from earlier work
Text: To study the application of PICs for the detection of ACPA-expressing B cells, we prepared a set of fluorescently labeled PICs containing CCP and arginine-containing control peptides (CArgP, Figure 1B), as well as tetrameric CCP-SA and CArgP-SA containing the same fluorophores (Figure 1C).[15] […] In CArgP, the citrulline residue that is essential for recognition by ACPA is replaced by an arginine. Besides the ...

[2] = system: ACPA-expressing B cells in peripheral blood of RA patients; assay: Identification and immunophenotyping of primary ACPA-expressing B cells in peripheral blood of RA patients; type: cell-based, human; conditions: median; n = 5; PICs and SA tetramer
Experimental: Having determined the specificity of CCP-PIC-AF647 and its ability to detect small subpopulations of B cells, we used the combination of PICs to identify and characterize the primary ACPA-expressing B cells in the peripheral blood of five RA patients. […] The median frequency was determined at approximately 0.007% cells out of total B cells (Figure 5A,B). To assess whether the characteristics of the patient’s ACPA-expressing B cells were consistent with previous data, we also examined various B-cell subset-defining markers such as CD20, CD27, IgG-class B-cell receptors, and the activation surface marker CD80 (Figure 5B).
Each dot represents one patient sample. Connected dots depict data from individual patient samples. Statistical differences between groups were determined using the Wilcoxon test. (ns, p > 0.05).
To identify and characterize ACPA-expressing B cells in RA blood, PBMC were isolated from peripheral blood of RA donors as above.
For stimulation experiments, ACPA-expressing Ramos B cells were used. Ramos cells were transduced with ACPA-encoding lentiviral vectors 8. Ramos cells were cultured in RPMI 1640 (Thermofisher) supplemented with 8% FCS, 100 U/ml PS, 2 mM GlutaMax and 10 mM HEPES).
To determine which ratio of CCP and fluorophore in PIC to use, two ratios of CCP-AF647 were tested, i.e. 10:1 and 2:1. […]

Rituximab: broadly B-cell depleting agent approved for clinical use
depletion of B-cell compartments (B-cell compartments): depletes the naïve and MBC compartments but leaves the compartment of antibody-secreting cells largely intact

cyclic citrullinated peptide [CCP]
recognition by ACPA and ACPA-expressing B cells [1]: recognized by both patient-derived ACPA and immortalized ACPA-expressing B cells

polyisocyanopeptides [PICs]
ACPA-expressing B cells positive for memory B cell markers CD20 and CD27 [2]: 50%

Source: PMC9006213, “Multifunctional, Multivalent PIC Polymer Scaffolds for Targeting Antigen-Specific, Autoreactive B Cells” (ACS Biomaterials Science & Engineering, 2022)
